Laboratory results published in ChEMBL document CHEMBL1201862, “PubChem BioAssay data set” (2004).
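All cell lines were grown in 96-well plates and treated with compound for 48 hours. The concentration for 50% growth inhibition is given as GI50.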 The source made the active and inactive calls. No stated cut-off is given here; in the data, active = GI50 up to about 1.1 µM and inactive = higher.

Experiments:
Test in all cases: NCI-60 cell line screen, 48 h
A549 = system: A549
COLO 205 = system: COLO 205
EKVX = system: EKVX
HCT-116 = system: HCT-116
HT-29 = system: HT-29
M14 = system: M14
M19-MEL = system: M19-MEL
NCI-H226 = system: NCI-H226
OVCAR-3 = system: OVCAR-3
SF-268 = system: SF-268
SF-295 = system: SF-295
SF-539 = system: SF-539
TK-10 = system: TK-10
U-251 = system: U-251
UACC-257 = system: UACC-257
UACC-62 = system: UACC-62
UO-31 = system: UO-31
XF498 = system: XF498
MDA-N = system: MDA-N
T47D = system: T47D

`C[C@]12Cc3cn[nH]c3C(=O)C1CC[C@@H]1C2CC[C@@]2(C)C1CC[C@]2(C)O` (stereo not given in full) was tested, and the GI50 (A549) was > 100 µM (inactive), the GI50 (COLO 205) was > 100 µM (inactive) and the GI50 (EKVX) was > 100 µM (inactive). The GI50 (HCT-116) was > 100 µM (inactive), the GI50 (HT-29) was > 100 µM (inactive) and the GI50 (M14) was > 100 µM (inactive). For the same molecule, the GI50 (M19-MEL) was > 100 µM (inactive), the GI50 (NCI-H226) was > 100 µM (inactive) and the GI50 (OVCAR-3) was > 100 µM (inactive). For the same molecule, the GI50 (SF-268) was > 100 µM (inactive), the GI50 (SF-295) was > 100 µM (inactive) and the GI50 (SF-539) was 84.5 µM (inactive). The GI50 (TK-10) was > 100 µM (inactive), the GI50 (U-251) was > 100 µM (inactive) and the GI50 (UACC-257) was > 100 µM (inactive). For the same molecule, the GI50 (UACC-62) was > 100 µM (inactive), the GI50 (UO-31) was > 100 µM (inactive) and the GI50 (XF498) was > 100 µM (inactive).

In the case of `CC(O)C(NC(=O)C(CS)NC(=O)C(CO)NC(=O)C(CCCCN)NC(=O)C(Cc1c[nH]c2ccccc12)NC(=O)C(Cc1ccc(O)cc1)NC(=O)C(CS)NC(=O)C(N)Cc1ccccc1)C(N)=O` (stereo not given), the GI50 (A549) is reported as > 25 µM (inactive), the GI50 (COLO 205) is reported as > 25 µM (inactive) and the GI50 (EKVX) is reported as > 25 µM (inactive). For the same molecule, the GI50 (HCT-116) was > 25 µM (inactive), the GI50 (HT-29) was > 25 µM (inactive) and the GI50 (M14) was > 25 µM (inactive). For the same molecule, the GI50 (M19-MEL) was 26 µM (inactive), the GI50 (MDA-N) was > 25 µM (inactive) and the GI50 (NCI-H226) was > 25 µM (inactive). The GI50 (OVCAR-3) was > 25 µM (inactive), the GI50 (SF-268) was > 25 µM (inactive) and the GI50 (SF-295) was > 25 µM (inactive). The GI50 (SF-539) was > 25 µM (inactive), the GI50 (T47D) was > 25 µM (inactive) and the GI50 (U-251) was > 25 µM (inactive). The GI50 (UACC-257) was > 25 µM (inactive), the GI50 (UACC-62) was > 25 µM (inactive) and the GI50 (UO-31) was > 25 µM (inactive). The GI50 (XF498) was 21.6 µM (inactive).

For `CC[C@@H](C(=O)[C@@H](C)[C@@H](O)[C@H](C)CCc1ccc(C)c(O)c1C(=O)O)[C@H]1O[C@](CC)([C@H]2CC[C@](O)(CC)[C@H](C)O2)C[C@@H]1C` [LASALOCID A SODIUM], the GI50 (A549) was 2.06 µM (inactive), the GI50 (COLO 205) was 1.1 µM (active) and the GI50 (EKVX) was 2.16 µM (inactive). For the same molecule, the GI50 (HCT-116) was 1.48 µM (inactive), the GI50 (HT-29) was 1.06 µM (active) and the GI50 (M14) was 3.31 µM (inactive). The GI50 (M19-MEL) was 1.65 µM (inactive), the GI50 (NCI-H226) was 3.05 µM (inactive) and the GI50 (OVCAR-3) was 0.637 µM (active). For the same molecule, the GI50 (SF-268) was 2.21 µM (inactive), the GI50 (SF-295) was 1.56 µM (inactive) and the GI50 (SF-539) was 1.15 µM (inactive). For the same molecule, the GI50 (TK-10) was 2.79 µM (inactive), the GI50 (U-251) was 1.34 µM (inactive) and the GI50 (UACC-257) was 2.99 µM (inactive). The GI50 (UACC-62) was 1.81 µM (inactive), the GI50 (UO-31) was 3.17 µM (inactive) and the GI50 (XF498) was 1.25 µM (inactive).
